Data on three compounds can be found in article PMC5995653 (Journal of pharmacological and toxicological methods, 2018).

Assay [1] addresses T1, hSERT (Homo sapiens, UniProt P31645). As to the kind of experiment: SERT reuptake inhibition in transfected hSERT-HEK293 cells. In kind it is cell-based. Conditions: unpublished results of the authors' group.
Assay [2] concerns the target T1, hSERT. Conditions: read-out: Reuptake inhibition activity IC50, hSERT-HEK293 cells; cited from earlier work.
A further assay has as its target rSERT (Rattus norvegicus, UniProt P31652). Conditions: read-out: Ki, rSERT, synaptosomes; cited from earlier work.
The target in assay [3] is T1, hSERT. Conditions: read-out: Reuptake inhibition activity IC50, hSERT, JAR cells.

Structures are written as SMILES. Read-outs that look alike come from different tables or passages of the source.

Usually IC50 stands for the midpoint of a concentration-inhibition curve. The term Ki denotes the equilibrium dissociation constant of an inhibitor or competing ligand from its target.

T1 sequence (P31645 whole entry): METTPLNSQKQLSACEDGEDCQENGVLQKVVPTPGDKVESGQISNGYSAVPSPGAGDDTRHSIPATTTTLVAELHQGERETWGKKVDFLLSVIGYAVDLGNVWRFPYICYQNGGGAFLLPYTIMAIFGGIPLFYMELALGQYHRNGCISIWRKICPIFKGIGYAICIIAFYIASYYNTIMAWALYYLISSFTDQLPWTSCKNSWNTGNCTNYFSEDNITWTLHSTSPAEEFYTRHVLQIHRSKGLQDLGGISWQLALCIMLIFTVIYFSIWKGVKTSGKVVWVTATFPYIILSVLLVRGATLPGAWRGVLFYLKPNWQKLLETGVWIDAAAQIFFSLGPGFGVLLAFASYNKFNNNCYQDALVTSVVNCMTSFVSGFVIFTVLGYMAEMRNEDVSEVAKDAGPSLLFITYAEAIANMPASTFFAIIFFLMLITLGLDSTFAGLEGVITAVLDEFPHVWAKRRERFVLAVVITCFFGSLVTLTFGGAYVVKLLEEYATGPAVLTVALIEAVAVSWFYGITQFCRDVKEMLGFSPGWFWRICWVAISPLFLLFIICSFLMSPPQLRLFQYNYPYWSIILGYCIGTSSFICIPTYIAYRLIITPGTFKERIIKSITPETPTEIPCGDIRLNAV
rSERT, sequence (P31652 whole entry): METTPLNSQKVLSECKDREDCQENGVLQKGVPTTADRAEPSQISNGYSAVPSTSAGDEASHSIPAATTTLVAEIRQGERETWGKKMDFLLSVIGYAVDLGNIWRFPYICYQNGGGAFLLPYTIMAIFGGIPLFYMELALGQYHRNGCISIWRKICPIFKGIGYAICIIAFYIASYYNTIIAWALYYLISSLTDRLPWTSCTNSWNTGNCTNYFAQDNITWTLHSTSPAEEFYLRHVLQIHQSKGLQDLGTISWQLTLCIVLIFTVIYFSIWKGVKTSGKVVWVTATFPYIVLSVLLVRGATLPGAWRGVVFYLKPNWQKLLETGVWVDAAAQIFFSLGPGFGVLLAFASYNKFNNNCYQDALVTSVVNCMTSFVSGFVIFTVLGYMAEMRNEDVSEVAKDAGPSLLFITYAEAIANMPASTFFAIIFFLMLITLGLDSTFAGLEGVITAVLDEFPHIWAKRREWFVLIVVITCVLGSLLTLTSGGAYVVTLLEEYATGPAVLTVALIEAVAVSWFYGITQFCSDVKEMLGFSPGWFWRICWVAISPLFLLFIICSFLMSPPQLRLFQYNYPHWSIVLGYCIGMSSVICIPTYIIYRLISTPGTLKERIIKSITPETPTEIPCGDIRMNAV

In the case of `Fc1ccc(C(OCCN2CCN(CCCc3ccccc3)CC2)c2ccc(F)cc2)cc1` [GBR12909], the “Activity in hSERT-HEK293 cells (in words)” value at hSERT [1] was “inactive”.
As to `COC(=O)[C@H]1C(c2ccc(I)cc2)C[C@@H]2CC[C@H]1N2C` (stereo partly drawn) [RTI-55], the IC50 at hSERT [2] is 0.51 ± 0.14 nM; at hSERT [3], 1.31 ± 0.1 nM. Also, the Ki at rSERT is 1 nM.
As for `CN1[C@H]2CC[C@@H]1[C@@H](C(=O)N1CCCC1)[C@@H](c1ccc(I)cc1)C2` [RTI-229], the Ki at rSERT was 362 nM. Besides, the IC50 on hSERT [3] is 589 ± 42 nM.
